Series [1] concerns the target T1, Proprotein convertase subtilisin/kexin type 9 (Homo sapiens, UniProt Q8NBP7). The series can be described thus: Inhibition of full length human PCSK9 expressed in human Huh-7 cells by ELISA analysis. It is filed as cell-based.
The nature of series [2]: (§1) Cytotoxicity against rat Bone marrow cell assessed as inhibition of cell growth with (R)-4-(3H-[1,2,3]triazolo[4,5-b]pyridin-3-yl)-N-(3-chloropyridin-2-yl)-N-(piperidin-3-yl) benzamide as high potent effect standard by celltiter-glo assay. The class given is toxicity, cell-based. To be noted: rat, rat bone marrow cells.
The nature of series [3]: Selectivity index, ratio of IC50 for cytotoxicity against rat Bone marrow cell assessed as inhibition of cell growth by celltiter-glo assay to IC50 for inhibition of full length human PCSK9 expressed in human Huh-7 cells by ELISA analysis.
The nature of series [4]: Cytotoxicity against rat Bone marrow cell assessed as inhibition of cell growth with puromycin as high potent effect standard by celltiter-glo assay. The class given is toxicity, cell-based. As to conditions: rat bone marrow cells.
Series [5] deals with Bone marrow cell. The description is as §1. To be noted: bone marrow cell. It is filed as toxicity, cell-based.
Series [6] has as its target T1, Proprotein convertase subtilisin/kexin type 9. In words: Inhibition of full length human PCSK9 expressed in human Huh-7 cells at 20 uM by ELISA analysis relative to control. It is filed as cell-based.
A short description of series [7]: Cmax in rat at 25 mg/kg, po. It is filed as ADME, organism-based. Also noted: dose 25 mg/kg, route po. As to conditions: in vivo.
Series [8] can be described thus: Lipophilicity, log D of the compound by shake flask method. It is filed as physicochemical. As to conditions: octanol/water.
Series [9] in a line: Unbound fraction in human plasma by equilibrium dialysis analysis. The class given is ADME, cell-free.
Series [10] can be described thus: Apparent permeability across basolateral to apical side in MDCK-MDR1 cells. To be noted: dog, read-out: permeability. It is filed as ADME, cell-based, Canis lupus familiaris.
A short description of series [11]: Apparent permeability of compound in MDCK-II cells. The class given is ADME, cell-based, Canis lupus familiaris. To be noted: dog, read-out: permeability.
Series [12] addresses CYP3A4 (Homo sapiens, UniProt P08684). In words: Inhibition of CYP3A4 (unknown origin) at 3 uM relative to control. It is filed as ADME.
Series [13] concerns the target T2, CYP1A2 (Homo sapiens, UniProt P05177).
T2 sequence (P05177 whole entry): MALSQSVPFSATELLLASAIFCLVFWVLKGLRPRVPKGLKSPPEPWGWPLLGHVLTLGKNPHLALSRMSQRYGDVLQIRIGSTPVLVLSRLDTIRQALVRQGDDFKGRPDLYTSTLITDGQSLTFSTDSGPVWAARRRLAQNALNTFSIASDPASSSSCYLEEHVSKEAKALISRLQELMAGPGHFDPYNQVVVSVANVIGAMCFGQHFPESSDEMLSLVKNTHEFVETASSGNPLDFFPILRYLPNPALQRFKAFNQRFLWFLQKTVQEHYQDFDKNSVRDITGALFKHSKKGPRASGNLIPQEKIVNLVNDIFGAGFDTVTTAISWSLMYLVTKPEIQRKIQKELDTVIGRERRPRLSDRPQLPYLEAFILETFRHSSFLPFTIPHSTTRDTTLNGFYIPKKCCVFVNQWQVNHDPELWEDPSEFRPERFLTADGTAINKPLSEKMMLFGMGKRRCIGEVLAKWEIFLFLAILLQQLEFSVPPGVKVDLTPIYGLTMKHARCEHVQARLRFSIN
In words: Inhibition of CYP1A2 (unknown origin) at 3 uM relative to control. The class given is ADME.

Series [14] has as its target CYP2C9 (Homo sapiens, UniProt P11712). The series can be described thus: Inhibition of CYP2C9 (unknown origin) at 3 uM relative to control. It is filed as ADME.
A short description of series [15]: Apparent permeability across apical to basolateral side in MDCK-MDR1 cells. The class given is ADME, cell-based, Canis lupus familiaris. To be noted: dog, read-out: permeability.
Series [16] has as its target Voltage-gated inwardly rectifying potassium channel KCNH2 (Homo sapiens, UniProt Q12809). In words: Inhibition of hERG by patch clamp assay. The class given is toxicity.
Series [17] has as its target CYP2D6 (Homo sapiens, UniProt P10635). In words: Inhibition of CYP2D6 (unknown origin) at 3 uM relative to control. The class given is ADME.
Series [18] is described as follows: Cytotoxicity against human CD34-positive cell assessed as reduction in cell growth by celltiter-glo assay. It is filed as toxicity, cell-based. As to conditions: human CD34-positive cells.
Series [19] in a line: Unbound fraction in mouse plasma by equilibrium dialysis analysis. The class given is ADME, cell-free.

T1 sequence (Q8NBP7 31-152 limits assumed): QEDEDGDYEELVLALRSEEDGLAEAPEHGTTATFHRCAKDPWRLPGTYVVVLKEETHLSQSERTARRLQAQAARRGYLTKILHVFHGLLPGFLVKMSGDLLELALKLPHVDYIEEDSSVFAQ
T1 sequence (Q8NBP7 153-692 limits assumed): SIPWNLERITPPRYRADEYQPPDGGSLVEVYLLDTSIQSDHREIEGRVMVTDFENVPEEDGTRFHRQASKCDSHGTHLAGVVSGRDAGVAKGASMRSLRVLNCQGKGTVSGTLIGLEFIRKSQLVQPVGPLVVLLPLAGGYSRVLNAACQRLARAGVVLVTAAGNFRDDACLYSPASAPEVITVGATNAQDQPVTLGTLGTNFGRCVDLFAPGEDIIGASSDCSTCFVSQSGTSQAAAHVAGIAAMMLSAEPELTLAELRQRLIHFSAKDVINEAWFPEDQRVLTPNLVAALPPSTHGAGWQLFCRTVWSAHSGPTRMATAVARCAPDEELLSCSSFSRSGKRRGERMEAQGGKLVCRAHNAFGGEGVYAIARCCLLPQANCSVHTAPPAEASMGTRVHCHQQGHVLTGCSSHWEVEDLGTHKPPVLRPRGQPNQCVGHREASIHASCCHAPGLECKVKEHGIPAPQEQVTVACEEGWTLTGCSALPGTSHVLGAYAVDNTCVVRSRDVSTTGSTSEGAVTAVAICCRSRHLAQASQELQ
Sequence of CYP3A4 (P08684 whole entry): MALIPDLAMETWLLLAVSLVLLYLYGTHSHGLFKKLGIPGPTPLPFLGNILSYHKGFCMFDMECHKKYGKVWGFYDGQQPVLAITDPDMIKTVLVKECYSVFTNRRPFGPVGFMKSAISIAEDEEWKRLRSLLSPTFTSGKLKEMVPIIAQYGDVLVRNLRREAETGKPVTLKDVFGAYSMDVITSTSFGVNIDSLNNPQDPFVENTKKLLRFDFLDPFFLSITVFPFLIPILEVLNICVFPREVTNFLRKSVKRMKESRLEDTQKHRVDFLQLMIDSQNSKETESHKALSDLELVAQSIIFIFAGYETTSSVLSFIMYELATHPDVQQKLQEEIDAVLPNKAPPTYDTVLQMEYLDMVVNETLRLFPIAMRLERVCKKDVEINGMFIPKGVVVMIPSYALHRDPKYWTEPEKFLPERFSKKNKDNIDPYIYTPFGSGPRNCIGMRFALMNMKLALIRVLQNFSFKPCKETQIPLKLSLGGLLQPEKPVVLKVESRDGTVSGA
Sequence of CYP2C9 (P11712 whole entry): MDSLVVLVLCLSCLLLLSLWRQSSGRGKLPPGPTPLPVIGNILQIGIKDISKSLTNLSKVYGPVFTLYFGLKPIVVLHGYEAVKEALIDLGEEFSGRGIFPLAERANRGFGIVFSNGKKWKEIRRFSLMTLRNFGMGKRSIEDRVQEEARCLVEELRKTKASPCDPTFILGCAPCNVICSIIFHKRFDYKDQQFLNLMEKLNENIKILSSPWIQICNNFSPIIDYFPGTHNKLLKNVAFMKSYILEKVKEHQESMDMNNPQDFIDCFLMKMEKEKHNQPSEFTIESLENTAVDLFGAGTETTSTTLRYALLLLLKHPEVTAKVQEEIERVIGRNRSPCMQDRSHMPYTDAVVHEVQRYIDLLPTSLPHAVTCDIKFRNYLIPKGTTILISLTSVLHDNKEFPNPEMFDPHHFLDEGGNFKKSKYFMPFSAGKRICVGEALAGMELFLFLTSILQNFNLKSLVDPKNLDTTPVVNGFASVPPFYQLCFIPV
Sequence of CYP2D6 (P10635 whole entry): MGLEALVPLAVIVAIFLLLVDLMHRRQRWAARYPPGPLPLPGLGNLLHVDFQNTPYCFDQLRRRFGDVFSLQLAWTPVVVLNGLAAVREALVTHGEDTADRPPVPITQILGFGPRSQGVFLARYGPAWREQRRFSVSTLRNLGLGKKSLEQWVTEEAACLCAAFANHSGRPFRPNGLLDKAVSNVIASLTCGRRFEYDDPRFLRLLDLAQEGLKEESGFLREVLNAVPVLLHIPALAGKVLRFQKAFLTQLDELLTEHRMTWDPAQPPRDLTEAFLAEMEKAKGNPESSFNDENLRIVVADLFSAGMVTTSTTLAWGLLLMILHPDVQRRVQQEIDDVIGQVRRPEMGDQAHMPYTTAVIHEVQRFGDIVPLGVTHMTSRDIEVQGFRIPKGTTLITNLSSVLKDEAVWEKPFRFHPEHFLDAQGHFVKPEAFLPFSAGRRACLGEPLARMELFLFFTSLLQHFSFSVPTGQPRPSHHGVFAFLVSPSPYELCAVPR
Sequence of Voltage-gated inwardly rectifying potassium channel KCNH2 (Q12809 whole entry): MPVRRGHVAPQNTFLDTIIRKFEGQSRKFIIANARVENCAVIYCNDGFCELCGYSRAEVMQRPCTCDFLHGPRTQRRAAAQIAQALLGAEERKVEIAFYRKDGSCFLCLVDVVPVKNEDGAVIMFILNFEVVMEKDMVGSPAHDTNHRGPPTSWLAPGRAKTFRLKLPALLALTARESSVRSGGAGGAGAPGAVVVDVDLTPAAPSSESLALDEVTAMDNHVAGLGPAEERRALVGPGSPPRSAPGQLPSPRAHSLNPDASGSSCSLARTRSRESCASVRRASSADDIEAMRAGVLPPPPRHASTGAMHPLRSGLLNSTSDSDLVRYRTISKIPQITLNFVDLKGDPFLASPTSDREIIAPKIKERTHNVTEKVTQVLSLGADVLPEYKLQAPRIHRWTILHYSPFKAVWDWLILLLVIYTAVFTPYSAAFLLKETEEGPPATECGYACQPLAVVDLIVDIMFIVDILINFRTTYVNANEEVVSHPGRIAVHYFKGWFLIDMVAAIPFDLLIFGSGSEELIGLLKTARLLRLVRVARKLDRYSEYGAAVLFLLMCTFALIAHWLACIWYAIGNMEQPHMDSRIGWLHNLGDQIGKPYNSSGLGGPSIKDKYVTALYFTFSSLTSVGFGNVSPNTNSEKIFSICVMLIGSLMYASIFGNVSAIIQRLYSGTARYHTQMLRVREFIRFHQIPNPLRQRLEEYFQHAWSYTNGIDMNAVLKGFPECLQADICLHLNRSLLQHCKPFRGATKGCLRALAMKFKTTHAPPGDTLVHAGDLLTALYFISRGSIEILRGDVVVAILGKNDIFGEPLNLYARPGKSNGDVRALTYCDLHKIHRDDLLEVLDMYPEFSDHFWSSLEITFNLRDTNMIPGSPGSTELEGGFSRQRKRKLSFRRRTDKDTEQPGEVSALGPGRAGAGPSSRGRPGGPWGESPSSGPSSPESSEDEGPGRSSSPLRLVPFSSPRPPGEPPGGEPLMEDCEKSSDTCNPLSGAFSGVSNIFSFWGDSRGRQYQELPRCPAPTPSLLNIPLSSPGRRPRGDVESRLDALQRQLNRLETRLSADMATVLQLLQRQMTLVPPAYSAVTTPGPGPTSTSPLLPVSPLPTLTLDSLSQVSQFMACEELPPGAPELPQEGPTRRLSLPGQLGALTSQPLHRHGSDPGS

In turn, `O=C(c1ccc(-n2nnc3cccnc32)cc1)N(c1ncccc1Cl)[C@H]1CNC[C@H](Oc2ccccc2)C1` (racemic) gave an IC50 in [1] of over 20 µM.

With `COc1cccnc1N(C(=O)c1ccc(-c2cnn3cccnc23)cc1)[C@@H]1CCCNC1`, the IC50 in series [1] came to 16.9 µM.

Consider `O=C(c1ccc(-n2nnc3cccnc32)cc1)N(c1ncccc1OC(F)(F)F)[C@@H]1CCCNC1`, for which the figures for the IC50 in [1] and in series [2] were 5.4 µM and 6.44 µM, respectively.

Molecule `O=C(c1ccc(-c2cnn3cccnc23)cc1)N(c1ncccc1F)[C@@H]1CCCNC1` came in with an IC50 in [1] of over 20 µM.

Take `Cc1cccnc1N(C(=O)c1ccc(-n2nnc3cccnc32)cc1)[C@@H]1CCCNC1`: the half-inhibitory concentration (IC50) in series [1] is 1.97 µM; in series [4], 0.99 µM. Also, the “Ratio IC50” value in series [3] is listed as 0.5.

With `O=C(c1ccc(-n2nnc3cccnc32)cc1)N(c1ncccc1Cl)[C@H]1CNC[C@H](CO)C1`, the values for the IC50 in series [1] and in [5] were 4.6 µM and 7.2 µM, respectively.

With `Cc1ccnc(N(C(=O)c2ccc(-n3nnc4cccnc43)cc2)[C@@H]2CCCNC2)c1Cl`, the values for the half-inhibitory concentration (IC50) in series [1] and in series [4] were 1.09 µM and 0.38 µM, respectively. Besides, the “Ratio IC50” value in series [3] is 0.35.

Consider `C[C@H]1CNC[C@H](N(C(=O)c2ccc(-n3nnc4cccnc43)cc2)c2ncccc2Cl)C1`, for which the IC50 in [1] was 14.1 µM; in [5], 22 µM.

For the molecule `NC(=O)NC[C@H]1CNC[C@H](N(C(=O)c2ccc(-n3nnc4cccnc43)cc2)c2ncccc2Cl)C1` (racemic), the IC50 in series [1] is over 20 µM.

In turn, `O=C(c1ccc(-n2nnc3cccnc32)cc1)N(c1ncccc1Cl)[C@H]1CNC[C@@H](CO)C1` (racemic) returned an inhibition in [6] of 11%. Further, the IC50 in [2] was over 100 µM.

Take `Cc1nccnc1N(C(=O)c1ccc(-n2nnc3cccnc32)cc1)[C@@H]1CCCNC1`: the IC50 came out at 1.84 µM in [1], 10.9 µM in series [2] and 2.36 µM in series [4]. The “Ratio IC50” value in series [3] amounted to 1.28.

In the case of `O=C(c1ccc(-n2nnc3cccnc32)cc1)N(c1ncccc1Cl)[C@H]1CNC[C@H](CO)C1` (racemic), the IC50 in series [1] came to 8.9 µM; in series [2], 9.9 µM.

Take `O=C(c1ccc(-n2nnc3cccnc32)cc1)N(c1ncccc1C(F)(F)F)[C@@H]1CCCNC1`: the IC50 came to 1.66 µM in series [1] and 13.8 µM in series [2]. Further, the “Ratio IC50” value in series [3] is listed as 8.28.

For the molecule `O=C(c1ccc(-n2nnc3cccnc32)cc1)N(c1ncccc1Cl)[C@@H]1CCCNC1`, the Cmax in series [7] is 312 ng/mL. The IC50 turned out to be 3.23 µM in series [2] and 1.15 µM in series [4].

Turning to `O=C(c1ccc(-n2nnc3cccnc32)cc1)N(c1nccc2c1CCCC2)[C@@H]1CCCNC1`, the values for the IC50 in [1] and in [4] were 2.28 µM and 0.41 µM, respectively. Further, the “Ratio IC50” value in series [3] came out at 0.18.

In the case of `CO[C@H]1CNC[C@H](N(C(=O)c2ccc(-n3nnc4cccnc43)cc2)c2ncccc2Cl)C1` (racemic), the figures for the IC50 in series [1] and in [2] were over 20 µM and 76.6 µM, respectively.

Consider `O=C(c1ccc(-n2nnc3cccnc32)cc1)N(c1ncccc1Cl)[C@H]1CNC[C@H](c2ccccc2)C1` (racemic), for which the IC50 in [1] is over 20 µM; in [2], 12.5 µM.

As for `C[C@H]1CNC[C@H](N(C(=O)c2ccc(-n3nnc4cccnc43)cc2)c2ncccc2Cl)C1` (racemic) [listing 1 of 2 here], in [6], the inhibition was 43%.

Take `O=C(c1ccc(-n2nnc3cccnc32)cc1)N(c1nccn1C1CC1)[C@@H]1CCCNC1`: the figures for the IC50 in [1] and in series [4] were 6.84 µM and 1.24 µM, respectively. The “Ratio IC50” value in series [3] was 0.18.

As for `Cn1ccc2ccnc(N(C(=O)c3ccc(-n4nnc5cccnc54)cc3)[C@@H]3CCCNC3)c21`, the IC50 in series [1] is 0.58 µM; in series [4] it was 0.04 µM. In addition, in series [3], the “Ratio IC50” value was 0.07.

The molecule `CC(=O)NC[C@H]1CNC[C@H](N(C(=O)c2ccc(-n3nnc4cccnc43)cc2)c2ncccc2Cl)C1` (racemic) had an IC50 in series [1] of over 20 µM.

Turning to `O=C(c1ccc(-c2cnn3cccnc23)cc1)N(c1ncccc1-c1ccccc1)[C@@H]1CCCNC1`, the values for the IC50 in [1] and in series [4] were 1.8 µM and 4.39 µM, respectively. In addition, the “Ratio IC50” value in series [3] amounted to 2.43.

On to `O=C(c1ccc(-n2nnc3cccnc32)cc1)N(c1nccc2ccsc12)[C@@H]1CCCNC1`, for which the figures for the IC50 in series [1] and in series [4] were 0.73 µM and 0.28 µM, respectively. Further, the “Ratio IC50” value in series [3] is reported as 0.38.

In the case of `CCc1cccnc1N(C(=O)c1ccc(-c2cnn3cccnc23)cc1)[C@@H]1CCCNC1`, it took 3.31 µM to reach half-maximal inhibition in [1] (IC50).

On to `Cc1cnc2c(c1)nnn2-c1ccc(C(=O)N(c2ncccc2Cl)[C@@H]2CCCNC2)nc1`, for which the IC50 was found to be 27.1 µM in series [2] and 19.9 µM in series [4].

In the case of `O=C(c1ccc(-c2cnn3cccnc23)cc1)N(c1ncccc1C1CC1)[C@@H]1CCCNC1`, the IC50 in series [1] is 7.74 µM.

On to `C[C@H]1CNC[C@H](N(C(=O)c2ccc(-n3nnc4cccnc43)cc2)c2ncccc2Cl)C1` (racemic) [listing 2 of 2 here], for which the IC50 in series [2] stood at 37.2 µM.

On to `C[C@@H]1CNC[C@H](N(C(=O)c2ccc(-n3nnc4cccnc43)cc2)c2ncccc2Cl)C1` (racemic) [listing 1 of 2 here], for which the inhibition in series [6] worked out at 38%.

In series [1], `COC(=O)NC[C@H]1CNC[C@H](N(C(=O)c2ccc(-n3nnc4cccnc43)cc2)c2ncccc2Cl)C1` (racemic) displayed an IC50 of over 20 µM.

Turning to `C[C@@H]1CNC[C@H](N(C(=O)c2ccc(-n3nnc4cccnc43)cc2)c2ncccc2Cl)C1` (racemic) [listing 2 of 2 here], the IC50 in series [2] stood at 35.6 µM.

For `O=C(c1ccc(-c2cnn3cccnc23)cc1)N(c1ncccc1C(F)(F)F)[C@@H]1CCCNC1`, the logD in series [8] turned out to be 1.1. Besides, the Fu is on record as 0.41% in [9] and 0.13% in series [19]. In addition, in series [10], the Papp B→A turned out to be 26.4 ×10⁻⁶ cm/s. Besides, the Papp in series [11] amounted to 7 ×10⁻⁶ cm/s. Further, the inhibition at 3 µM in series [12], in [13], in series [14] and in series [17] was under 40% throughout. The IC50 in series [1] is 2.79 µM; in series [16] it was 57.6 µM; in series [2] it was 21.2 µM; in series [18] it was 35.9 µM; in series [4] it was over 20 µM. Moreover, the Papp A→B in [15] turned out to be 0.7 ×10⁻⁶ cm/s. Moreover, the “Ratio IC50” value in series [3] is reported as 7.6.

Regarding `Cn1ncc2ccnc(N(C(=O)c3ccc(-n4nnc5cccnc54)cc3)[C@@H]3CCCNC3)c21`, the figures for the IC50 in series [1] and in series [4] were 0.62 µM and 0.18 µM, respectively. The “Ratio IC50” value in [3] is reported as 0.29.

For `C[C@@H]1CNC[C@H](N(C(=O)c2ccc(-n3nnc4cccnc43)cc2)c2ncccc2Cl)C1`, the IC50 stood at 17.1 µM in series [1] and 23.3 µM in [5].

Molecule `N#Cc1cccnc1N(C(=O)c1ccc(-c2cnn3cccnc23)cc1)[C@@H]1CCCNC1` displayed an IC50 in series [1] of over 20 µM.

In turn, `CNC(=O)OC[C@H]1CNC[C@H](N(C(=O)c2ccc(-n3nnc4cccnc43)cc2)c2ncccc2Cl)C1` (racemic) had an IC50 in series [1] of over 20 µM.
